Key:
DNA repair protein genes = assay: DNA chip mRNA expression in yeast, DNA repair protein genes (Table 3); format: cell-based, Saccharomyces cerevisiae S288C; details: incubated two hours, concentrations as in the 1st table
Method in brief: (§1)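 Measured as treated-to-untreated fluorescence ratio on a full-genome yeast DNA chip. Cells (S288C, YPD, 25° C.) were exposed in log phase for two hours to one chemical, dosed to curb growth without killing.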

[1] = system: Detoxification protein genes; assay: DNA chip mRNA expression in yeast, detoxification protein genes (Table 8); format: cell-based, Saccharomyces cerevisiae S288C
Method in brief: as §1

S=C([S-])NCCNC(=S)[S-].[Zn+2] [(11), zinc N,N′-ethylenebis(dithiocarbamate)]
The level of expressed mRNA in the presence of chemical substance/The level of expressed mRNA in the absence of chemical substance (DNA repair protein genes; yeast gene YAL015C): 1.4 | The level of expressed mRNA in the presence of chemical substance/The level of expressed mRNA in the absence of chemical substance (DNA repair protein genes; yeast gene YAR007C): 0.9 | The level of expressed mRNA in the presence of chemical substance/The level of expressed mRNA in the absence of chemical substance (DNA repair protein genes; yeast gene YBL019W): 1.0 | The level of expressed mRNA in the presence of chemical substance/The level of expressed mRNA in the absence of chemical substance (DNA repair protein genes; yeast gene YBR073W): 0.5 | The level of expressed mRNA in the presence of chemical substance/The level of expressed mRNA in the absence of chemical substance (DNA repair protein genes; yeast gene YBR272C): 1.1 | The level of expressed mRNA in the presence of chemical substance/The level of expressed mRNA in the absence of chemical substance (DNA repair protein genes; yeast gene YCR014C): 0.8 | The level of expressed mRNA in the presence of chemical substance/The level of expressed mRNA in the absence of chemical substance (DNA repair protein genes; yeast gene YDL017W): 0.8 | The level of expressed mRNA in the presence of chemical substance/The level of expressed mRNA in the absence of chemical substance (DNA repair protein genes; yeast gene YDL059C): 2.0 | The level of expressed mRNA in the presence of chemical substance/The level of expressed mRNA in the absence of chemical substance (DNA repair protein genes; yeast gene YDL200C): 1.2 | The level of expressed mRNA in the presence of chemical substance/The level of expressed mRNA in the absence of chemical substance (DNA repair protein genes; yeast gene YDR054C): 1.9 | The level of expressed mRNA in the presence of chemical substance/The level of expressed mRNA in the absence of chemical substance (DNA repair protein genes; yeast gene YDR369C): 1.1 | The level of expressed mRNA in the presence of chemical substance/The level of expressed mRNA in the absence of chemical substance (DNA repair protein genes; yeast gene YEL019C): 1.2 | The level of expressed mRNA in the presence of chemical substance/The level of expressed mRNA in the absence of chemical substance (DNA repair protein genes; yeast gene YEL037C): 1.0 | The level of expressed mRNA in the presence of chemical substance/The level of expressed mRNA in the absence of chemical substance (DNA repair protein genes; yeast gene YER162C): 0.5 | The level of expressed mRNA in the presence of chemical substance/The level of expressed mRNA in the absence of chemical substance (DNA repair protein genes; yeast gene YFL014W): 5.0 | The level of expressed mRNA in the presence of chemical substance/The level of expressed mRNA in the absence of chemical substance (DNA repair protein genes; yeast gene YGL058W): 0.8 | The level of expressed mRNA in the presence of chemical substance/The level of expressed mRNA in the absence of chemical substance (DNA repair protein genes; yeast gene YGL091C): 2.1 | The level of expressed mRNA in the presence of chemical substance/The level of expressed mRNA in the absence of chemical substance (DNA repair protein genes; yeast gene YGL127C): 1.0 | The level of expressed mRNA in the presence of chemical substance/The level of expressed mRNA in the absence of chemical substance (DNA repair protein genes; yeast gene YGL163C): 0.4 | The level of expressed mRNA in the presence of chemical substance/The level of expressed mRNA in the absence of chemical substance (DNA repair protein genes; yeast gene YGL249W): 0.6 | The level of expressed mRNA in the presence of chemical substance/The level of expressed mRNA in the absence of chemical substance (DNA repair protein genes; yeast gene YGR180C): 1.0 | The level of expressed mRNA in the presence of chemical substance/The level of expressed mRNA in the absence of chemical substance (DNA repair protein genes; yeast gene YGR231C): 1.6 | The level of expressed mRNA in the presence of chemical substance/The level of expressed mRNA in the absence of chemical substance (DNA repair protein genes; yeast gene YGR258C): 0.3 | The level of expressed mRNA in the presence of chemical substance/The level of expressed mRNA in the absence of chemical substance (DNA repair protein genes; yeast gene YHR164C): 0.6 | The level of expressed mRNA in the presence of chemical substance/The level of expressed mRNA in the absence of chemical substance (DNA repair protein genes; yeast gene YIL036W): 1.2 | The level of expressed mRNA in the presence of chemical substance/The level of expressed mRNA in the absence of chemical substance (DNA repair protein genes; yeast gene YIL072W): 1.8 | The level of expressed mRNA in the presence of chemical substance/The level of expressed mRNA in the absence of chemical substance (DNA repair protein genes; yeast gene YIL143C): 1.5 | The level of expressed mRNA in the presence of chemical substance/The level of expressed mRNA in the absence of chemical substance (DNA repair protein genes; yeast gene YIL153W): 1.0 | The level of expressed mRNA in the presence of chemical substance/The level of expressed mRNA in the absence of chemical substance (DNA repair protein genes; yeast gene YIR002C): 0.8 | The level of expressed mRNA in the presence of chemical substance/The level of expressed mRNA in the absence of chemical substance (DNA repair protein genes; yeast gene YJL026W): 1.3 | The level of expressed mRNA in the presence of chemical substance/The level of expressed mRNA in the absence of chemical substance (DNA repair protein genes; yeast gene YJR046W): 0.6 | The level of expressed mRNA in the presence of chemical substance/The level of expressed mRNA in the absence of chemical substance (DNA repair protein genes; yeast gene YJR052W): 1.1 | The level of expressed mRNA in the presence of chemical substance/The level of expressed mRNA in the absence of chemical substance (DNA repair protein genes; yeast gene YKL145W): 1.8 | The level of expressed mRNA in the presence of chemical substance/The level of expressed mRNA in the absence of chemical substance (DNA repair protein genes; yeast gene YLR103C): 0.9 | The level of expressed mRNA in the presence of chemical substance/The level of expressed mRNA in the absence of chemical substance (DNA repair protein genes; yeast gene YLR233C): 0.8 | The level of expressed mRNA in the presence of chemical substance/The level of expressed mRNA in the absence of chemical substance (DNA repair protein genes; yeast gene YLR288C): 1.4 | The level of expressed mRNA in the presence of chemical substance/The level of expressed mRNA in the absence of chemical substance (DNA repair protein genes; yeast gene YML032C): 1.0 | The level of expressed mRNA in the presence of chemical substance/The level of expressed mRNA in the absence of chemical substance (DNA repair protein genes; yeast gene YML058W): 3.3 | The level of expressed mRNA in the presence of chemical substance/The level of expressed mRNA in the absence of chemical substance (DNA repair protein genes; yeast gene YMR035W): 1.5 | The level of expressed mRNA in the presence of chemical substance/The level of expressed mRNA in the absence of chemical substance (DNA repair protein genes; yeast gene YMR072W): 1.9 | The level of expressed mRNA in the presence of chemical substance/The level of expressed mRNA in the absence of chemical substance (DNA repair protein genes; yeast gene YMR096W): 1.5 | The level of expressed mRNA in the presence of chemical substance/The level of expressed mRNA in the absence of chemical substance (DNA repair protein genes; yeast gene YMR284W): 1.1 | The level of expressed mRNA in the presence of chemical substance/The level of expressed mRNA in the absence of chemical substance (DNA repair protein genes; yeast gene YNL213C): 1.5 | The level of expressed mRNA in the presence of chemical substance/The level of expressed mRNA in the absence of chemical substance (DNA repair protein genes; yeast gene YNL250W): 1.0 | The level of expressed mRNA in the presence of chemical substance/The level of expressed mRNA in the absence of chemical substance (DNA repair protein genes; yeast gene YNL261W): 0.8 | The level of expressed mRNA in the presence of chemical substance/The level of expressed mRNA in the absence of chemical substance (DNA repair protein genes; yeast gene YNL312W): 1.4 | The level of expressed mRNA in the presence of chemical substance/The level of expressed mRNA in the absence of chemical substance (DNA repair protein genes; yeast gene YOL043C): 1.2 | The level of expressed mRNA in the presence of chemical substance/The level of expressed mRNA in the absence of chemical substance (DNA repair protein genes; yeast gene YOR005C): 1.2 | The level of expressed mRNA in the presence of chemical substance/The level of expressed mRNA in the absence of chemical substance (DNA repair protein genes; yeast gene YOR386W): 1.4 | The level of expressed mRNA in the presence of chemical substance/The level of expressed mRNA in the absence of chemical substance (DNA repair protein genes; yeast gene YPL022W): 0.8 | The level of expressed mRNA in the presence of chemical substance/The level of expressed mRNA in the absence of chemical substance (DNA repair protein genes; yeast gene YPL164C): 1.1 | The level of expressed mRNA in the presence of chemical substance/The level of expressed mRNA in the absence of chemical substance (DNA repair protein genes; yeast gene YPL194W): 0.9 | The level of expressed mRNA in the presence of chemical substance/The level of expressed mRNA in the absence of chemical substance (DNA repair protein genes; yeast gene YPR025C): 0.9 | The level of expressed mRNA in the presence of chemical substance/The level of expressed mRNA in the absence of chemical substance ([1]; yeast gene YBL064C): 2.9 | The level of expressed mRNA in the presence of chemical substance/The level of expressed mRNA in the absence of chemical substance ([1]; yeast gene YBR008C): 9.4 | The level of expressed mRNA in the presence of chemical substance/The level of expressed mRNA in the absence of chemical substance ([1]; yeast gene YBR145W): 1.1
